Like-named read-outs stand apart in the source and are kept apart here.
What was measured:
Pseudomonas fluorescens = details: for Growth/Days 1: day 1; for Growth/Days 2: day 2; for Growth/Days 7: day 7
Procedure: (§1) Nutrient agar amended with Azocoll (a substrate made up of insoluble particles of collagen impregnated with a bright azo dye) was used as the test medium to study collagenase activity. The nutrient agar was prepared and autoclaved and then was cooled to 55° C. Azocol was added to give a final concentration of 0.5%. […] Using a sterile spatula or cork-borer, the middle portion of each plate of about the size of a United States quarter, was scooped out. Fresh nutrient agar-azocoll medium containing no inhibitor was added to replace the scooped out portion of the plate. […] The bacteria were grown overnight on nutrient agar. A suspension of each culture was made in sterile water and used to inoculate the middle portion of each plate. The treated samples were incubated at 30° C. and evaluated after 24 hours, 2 days and 7 days for collagenase activity and also for the growth of the bacteria. The test cultures secreted collagenase into the medium as they grew to degrade the collagen in the azocoll medium, and collagenase activity was determined by visual inspection of the clear zone around the bacteria. All % are by weight percent of the active ingredient.

Aeromonas salmonicida = tested on: Aeromonas salmonicida; set-up: key to the marks not given beside the values; details: for Growth/Days 1: day 1; for Growth/Days 2: day 2; for Growth/Days 7: day 7
Procedure: as §1

collagenase [1] = details: for Collagenase Activity/Days 1: day 1; for Collagenase Activity/Days 2: day 2; for Collagenase Activity/Days 7: day 7
collagenase [2] = details: for Collagenase Activity/Days 1: day 1; for Collagenase Activity/Days 2: day 2; for Collagenase Activity/Days 7: day 7; remark: listed apart in the source
[3] = tested on: mixed bacteria on fresh hide samples; set-up: Growth/Days 2 / Growth/Days 4: key to the marks not given beside the values; details: for Growth/Days 1: day 1; for Growth/Days 2: day 2; for Growth/Days 4: day 4;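 on all read-outs here: fresh hide pieces laid on inhibitor-containing nutrient agar supplemented with 0.5% Azocoll, incubated at 30 °C, then scored for growth of bacteria originating from the hide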
collagenase [4] = details: for Collagenase Activity/Days 1: day 1; for Collagenase Activity/Days 2: day 2; for Collagenase Activity/Days 7: day 7; remark: listed apart in the source
Procedure: Nutrient agar amended with 0.5% AZOCOLL was used as the test medium to study collagenase activity. The nutrient agar was prepared and autoclaved and then was cooled to 55° C. Azocol was added to give a final concentration of 0.5%. […] Fresh hides were obtained from a tannery and were cut into pieces of approximately 2 cm square. One 2×2 cm hide sample was placed on top of the agar containing the inhibitors. Treated samples were incubated at 30° C. and evaluated after 24 hours, 2 days, 3 or 4 days and 7 days for collagenase activity and also for the growth of the bacteria. The bacteria from the hides secreted collagenase into the medium as they grew to degrade the collagen in the azocoll medium and collagenase activity was determined by visual inspection of the clear zone around the bacteria
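Wherever Collagenase Activity/Days 4 is given: nutrient agar containing 0.5% Azocoll with inhibitor, topped by a fresh hide piece, kept at 30 °C, collagenase from hide bacteria scored visually as clearing zone around growth.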

O=C(O)CN(CCOCCOCCN(CC(=O)O)CC(=O)O)CC(=O)O [Na4EGTA, ethylene glycol-bis(β-aminoethylether)-N,N,N′N′-tetraacetic acid]
Growth/Days 1 (Pseudomonas fluorescens; Conc. 0.025%): ++++
Growth/Days 2 (Pseudomonas fluorescens; Conc. 0.025%): ++++
Growth/Days 7 (Pseudomonas fluorescens; Conc. 0.025%): ++++
Growth/Days 1 (Pseudomonas fluorescens; Conc. 0.05%): ++++
Growth/Days 2 (Pseudomonas fluorescens; Conc. 0.05%): ++++
Growth/Days 7 (Pseudomonas fluorescens; Conc. 0.05%): ++++
Growth/Days 1 (Pseudomonas fluorescens; Conc. 0.075%): ++++
Growth/Days 2 (Pseudomonas fluorescens; Conc. 0.075%): ++++
Growth/Days 7 (Pseudomonas fluorescens; Conc. 0.075%): ++++
Growth/Days 1 (Pseudomonas fluorescens; Conc. 0.1%): ++++
Growth/Days 2 (Pseudomonas fluorescens; Conc. 0.1%): ++++
Growth/Days 7 (Pseudomonas fluorescens; Conc. 0.1%): ++++
Growth/Days 1 (Pseudomonas fluorescens; Conc. 0.2%): ++++
Growth/Days 2 (Pseudomonas fluorescens; Conc. 0.2%): ++++
Growth/Days 7 (Pseudomonas fluorescens; Conc. 0.2%): ++++
Growth/Days 1 (Pseudomonas fluorescens; Conc. 0.3%): ++++
Growth/Days 2 (Pseudomonas fluorescens; Conc. 0.3%): ++++
Growth/Days 7 (Pseudomonas fluorescens; Conc. 0.3%): ++++
Growth/Days 1 (Pseudomonas fluorescens; Conc. 0.4%): ++++
Growth/Days 2 (Pseudomonas fluorescens; Conc. 0.4%): ++++
Growth/Days 7 (Pseudomonas fluorescens; Conc. 0.4%): ++++
Growth/Days 1 (Pseudomonas fluorescens; Conc. 0.5%): ++++
Growth/Days 2 (Pseudomonas fluorescens; Conc. 0.5%): ++++
Growth/Days 7 (Pseudomonas fluorescens; Conc. 0.5%): ++++
Growth/Days 1 (Aeromonas salmonicida; Conc. 0.1%): ++++
Growth/Days 2 (Aeromonas salmonicida; Conc. 0.1%): ++++
Growth/Days 7 (Aeromonas salmonicida; Conc. 0.1%): ++++
Growth/Days 1 (Aeromonas salmonicida; Conc. 0.25%): ++++
Growth/Days 2 (Aeromonas salmonicida; Conc. 0.25%): ++++
Growth/Days 7 (Aeromonas salmonicida; Conc. 0.25%): ++++
Growth/Days 1 (Aeromonas salmonicida; Conc. 0.5%): ++++
Growth/Days 2 (Aeromonas salmonicida; Conc. 0.5%): ++++
Growth/Days 7 (Aeromonas salmonicida; Conc. 0.5%): ++++
Collagenase Activity/Days 1 (collagenase [1]; Conc. 0.025%): ++++
Collagenase Activity/Days 2 (collagenase [1]; Conc. 0.025%): ++++
Collagenase Activity/Days 7 (collagenase [1]; Conc. 0.025%): ++++
Collagenase Activity/Days 1 (collagenase [1]; Conc. 0.075%): 0
Collagenase Activity/Days 1 (collagenase [1]; Conc. 0.1%): 0
Collagenase Activity/Days 2 (collagenase [1]; Conc. 0.1%): 0
Collagenase Activity/Days 1 (collagenase [1]; Conc. 0.2%): 0
Collagenase Activity/Days 2 (collagenase [1]; Conc. 0.2%): 0
Collagenase Activity/Days 1 (collagenase [1]; Conc. 0.3%): 0
Collagenase Activity/Days 2 (collagenase [1]; Conc. 0.3%): 0
Collagenase Activity/Days 1 (collagenase [1]; Conc. 0.4%): 0
Collagenase Activity/Days 2 (collagenase [1]; Conc. 0.4%): 0
Collagenase Activity/Days 1 (collagenase [1]; Conc. 0.5%): 0
Collagenase Activity/Days 2 (collagenase [1]; Conc. 0.5%): 0
Collagenase Activity/Days 7 (collagenase [1]; Conc. 0.5%): 0
performance as collagenase inhibitors (summary in words) (collagenase [1]; collagenase produced by the bacteria studied, Table 1): performed very well as collagenase inhibitors
Collagenase Activity/Days 1 (collagenase [2]; Conc. 0.1%): 0
Collagenase Activity/Days 2 (collagenase [2]; Conc. 0.1%): 0
Collagenase Activity/Days 1 (collagenase [2]; Conc. 0.25%): 0
Collagenase Activity/Days 2 (collagenase [2]; Conc. 0.25%): 0
Collagenase Activity/Days 7 (collagenase [2]; Conc. 0.25%): 0
Collagenase Activity/Days 1 (collagenase [2]; Conc. 0.5%): 0
Collagenase Activity/Days 2 (collagenase [2]; Conc. 0.5%): 0
Collagenase Activity/Days 7 (collagenase [2]; Conc. 0.5%): 0
performance as collagenase inhibitors (summary in words) (collagenase [2]; collagenase produced by the bacteria studied, Table 2): performed very well as collagenase inhibitors
Growth/Days 1 ([3]; Conc. 0.025%): ++++
Growth/Days 2 ([3]; Conc. 0.025%): ++++
Growth/Days 4 ([3]; Conc. 0.025%): ++++
Growth/Days 1 ([3]; Conc. 0.05%): ++++
Growth/Days 2 ([3]; Conc. 0.05%): ++++
Growth/Days 4 ([3]; Conc. 0.05%): ++++
Growth/Days 1 ([3]; Conc. 0.075%): ++++
Growth/Days 2 ([3]; Conc. 0.075%): ++++
Growth/Days 4 ([3]; Conc. 0.075%): ++++
Growth/Days 1 ([3]; Conc. 0.1%): ++++
Growth/Days 2 ([3]; Conc. 0.1%): ++++
Growth/Days 4 ([3]; Conc. 0.1%): ++++
Growth/Days 1 ([3]; Conc. 0.2%): ++++
Growth/Days 2 ([3]; Conc. 0.2%): ++++
Growth/Days 4 ([3]; Conc. 0.2%): ++++
Growth/Days 1 ([3]; Conc. 0.3%): ++++
Growth/Days 2 ([3]; Conc. 0.3%): ++++
Growth/Days 4 ([3]; Conc. 0.3%): ++++
Growth/Days 1 ([3]; Conc. 0.4%): +++
Growth/Days 2 ([3]; Conc. 0.4%): ++++
Growth/Days 4 ([3]; Conc. 0.4%): ++++
Growth/Days 1 ([3]; Conc. 0.5%): +++
Growth/Days 2 ([3]; Conc. 0.5%): ++++
Growth/Days 4 ([3]; Conc. 0.5%): ++++
Collagenase Activity/Days 1 (collagenase [4]; Conc. 0.025%): ++++
Collagenase Activity/Days 2 (collagenase [4]; Conc. 0.025%): ++++
Collagenase Activity/Days 4 (collagenase [4]; Conc. 0.025%, day 4): ++++
Collagenase Activity/Days 7 (collagenase [4]; Conc. 0.025%): ++++
Collagenase Activity/Days 4 (collagenase [4]; Conc. 0.05%, day 4): ++++
Collagenase Activity/Days 1 (collagenase [4]; Conc. 0.075%): 0
Collagenase Activity/Days 4 (collagenase [4]; Conc. 0.075%, day 4): ++++
Collagenase Activity/Days 1 (collagenase [4]; Conc. 0.1%): 0
Collagenase Activity/Days 2 (collagenase [4]; Conc. 0.1%): 0
Collagenase Activity/Days 4 (collagenase [4]; Conc. 0.1%, day 4): +
Collagenase Activity/Days 1 (collagenase [4]; Conc. 0.2%): 0
Collagenase Activity/Days 2 (collagenase [4]; Conc. 0.2%): 0
Collagenase Activity/Days 4 (collagenase [4]; Conc. 0.2%, day 4): +
Collagenase Activity/Days 1 (collagenase [4]; Conc. 0.3%): 0
Collagenase Activity/Days 2 (collagenase [4]; Conc. 0.3%): 0
Collagenase Activity/Days 4 (collagenase [4]; Conc. 0.3%, day 4): +
Collagenase Activity/Days 1 (collagenase [4]; Conc. 0.4%): 0
Collagenase Activity/Days 2 (collagenase [4]; Conc. 0.4%): 0
Collagenase Activity/Days 4 (collagenase [4]; Conc. 0.4%, day 4): 0
Collagenase Activity/Days 4 (collagenase [4]; Conc. 0.5%, column day 4, footnote **: data collected on Day 3): 0**
Collagenase Activity/Days 1 (collagenase [4]; Conc. 0.5%): 0
Collagenase Activity/Days 2 (collagenase [4]; Conc. 0.5%): 0
Collagenase Activity/Days 7 (collagenase [4]; Conc. 0.5%): 0
performance as collagenase inhibitors (summary in words) (collagenase [4]; collagenase produced by the mixed culture of bacteria from the hides): performed very well as collagenase inhibitors

Reference: patent US20060112494A1, “Method of protecting an animal skin product from metalloproteinase activity” (priority 2004, published 2006)
